Experimental data taken from US20220274968A1, “Oxazole And Oxadiazole Derivatives Useful As Agonists Of Free Fatty Acid Receptor 1” (GBiotech S.à.r.l., priority 2019, published 2022).

System: C57BI/6N male mice
Experiment: Oral glucose tolerance test (OGTT) in C57BI/6N male mice
Assay type: in vivo
Details: single peroral dose 60 min before glucose 2 g/kg; Z1558775684 20 mg/kg, Metformin 300 mg/kg; compared with the Vehicle-treated group; 5 mice per group
Method: Values are expressed as means of 5 animals tested. For glucose tolerance test (GTT), mice were orally treated with glucose at dose of 2 g/kg at the dose volume of 10 ml/kg after a 6-hour fasting. Glucose measurements were performed immediately before compound treatment (−60 min), at −30 min, 0 min (before glucose administration), and then 15, 30, 60, 90 and 120 min after glucose administration.
EXAMPLE 87: OGTT TESTING IN C57BI/6N MALE MICE
Each experimental group consisted of five male C57BI/6N mice. Animals were dosed once perorally with 20 mg/kg of tested compound Z1558775684. A control group was dosed with vehicle on the same schedule. Metformin at the dosage of 300 mg/kg was used as reference compound.
Compound Z1558775684 was dissolved/suspended in DMSO-PEG400-physiological saline (20%:50%:30%) at concentration 4 mg/ml. Metformin was dissolved in the same vehicle at concentration 60 mg/ml. The test samples were administered per os in the volume corresponding to 5 ml/kg body weight.
Single doses of test samples were administered 60 min before glucose treatment at 3 p.m.
The blood glucose level was measured after 6-hour fasting using Call Plus glucometer and specific test strips. Blood was obtained from the tail vein by incision of the tail tip, 5-6 μl of blood was used for each assay. […]

Row | Compound | glucose level during oral glucose tolerance test (OGTT)
1 | CN(C)C(=N)N=C(N)N [Metformin] | Statistically significant decrease in glucose level
2 | CCc1nc(N)nc(SCc2ncc(-c3cccc(Cl)c3)o2)n1 [Compound Z1558775684, 4-({[5-(3-chlorophenyl)-1,3-oxazol-2-yl]methyl}sulfanyl)-6-ethyl-1,3,5-triazin-2-amine] | Statistically significant decrease in glucose level
